US10501489B2, “C17-alkanediyl and alkenediyl derivatives of oleanolic acid and methods of use thereof” (REATA PHARMACEUTICALS, INC., priority 2012, dated 2019)

System: RAW264.7 mouse macrophages
Test: Suppression of IFNγ-induced NO production (nitric oxide production and cell viability assay)
Format: cell-based
Details: RAW264.7 cells, drug pre-treatment 2 hours, then recombinant mouse IFNγ 24 hours; Griess reagent; normalized to cell viability (WST-1)
Procedure: Assay results for the suppression of IFNγ-induced NO production are shown for several of the compounds of the present invention in Table 1 below. […] Details regarding this assay are provided in the Examples section below. Nitric Oxide Production and Cell Viability Assay. […] On the next day, cells were pre-treated with DMSO or drug (O-200 nM dose range) for 2 hours, and then treated with recombinant mouse IFNγ (R&D Systems) for 24 hours. Nitric Oxide concentration in media was determined using the Griess reagent system (Promega). Cell viability was determined using WST-1 reagent (Roche). IC50 values were determined based on the suppression of IFNγ induced Nitric Oxide production normalized to cell viability.

SMILES	IC50 [nM]
CC[C@]12CCC(C)(C)C[C@H]1[C@H]1C(=O)C=C3[C@@]4(C)C=C(C#N)C(=O)C(C)(C)[C@@H]4CC[C@@]3(C)[C@]1(C)CC2 [TX63403]	8.6
CC1(C)CC[C@]2(CCO)CC[C@]3(C)[C@H](C(=O)C=C4[C@@]5(C)C=C(C#N)C(=O)C(C)(C)[C@@H]5CC[C@]43C)[C@@H]2C1 [TX63608]	1.1
COCC[C@]12CCC(C)(C)C[C@H]1[C@H]1C(=O)C=C3[C@@]4(C)C=C(C#N)C(=O)C(C)(C)[C@@H]4CC[C@@]3(C)[C@]1(C)CC2 [TX63609]	2.9
CC(=O)OCC[C@]12CCC(C)(C)C[C@H]1[C@H]1C(=O)C=C3[C@@]4(C)C=C(C#N)C(=O)C(C)(C)[C@@H]4CC[C@@]3(C)[C@]1(C)CC2 [TX63610]	2.2
COC(=O)CC[C@]12CCC(C)(C)C[C@H]1[C@H]1C(=O)C=C3[C@@]4(C)C=C(C#N)C(=O)C(C)(C)[C@@H]4CC[C@@]3(C)[C@]1(C)CC2 [TX63742]	2
COC(=O)/C=C/[C@]12CCC(C)(C)C[C@H]1[C@H]1C(=O)C=C3[C@@]4(C)C=C(C#N)C(=O)C(C)(C)[C@@H]4CC[C@@]3(C)[C@]1(C)CC2 [TX63743]	3.2
CC1(C)CC[C@]2(CCCO)CC[C@]3(C)[C@H](C(=O)C=C4[C@@]5(C)C=C(C#N)C(=O)C(C)(C)[C@@H]5CC[C@]43C)[C@@H]2C1 [TX63744]	1.1
CC1(C)CC[C@]2(CCC(=O)O)CC[C@]3(C)[C@H](C(=O)C=C4[C@@]5(C)C=C(C#N)C(=O)C(C)(C)[C@@H]5CC[C@]43C)[C@@H]2C1 [TX63762]	1.2
CC1(C)CC[C@]2(CCC(=O)N3CCOCC3)CC[C@]3(C)[C@H](C(=O)C=C4[C@@]5(C)C=C(C#N)C(=O)C(C)(C)[C@@H]5CC[C@]43C)[C@@H]2C1 [TX63763]	0.4
CC1(C)CC[C@]2(CCC(=O)NCC(F)(F)F)CC[C@]3(C)[C@H](C(=O)C=C4[C@@]5(C)C=C(C#N)C(=O)C(C)(C)[C@@H]5CC[C@]43C)[C@@H]2C1 [TX63764]	0.7
CCNC(=O)CC[C@]12CCC(C)(C)C[C@H]1[C@H]1C(=O)C=C3[C@@]4(C)C=C(C#N)C(=O)C(C)(C)[C@@H]4CC[C@@]3(C)[C@]1(C)CC2 [TX63768]	0.3
CNC(=O)CC[C@]12CCC(C)(C)C[C@H]1[C@H]1C(=O)C=C3[C@@]4(C)C=C(C#N)C(=O)C(C)(C)[C@@H]4CC[C@@]3(C)[C@]1(C)CC2 [TX63770]	0.2
CC1(C)CC[C@]2(COC(=O)n3ccnc3)CC[C@]3(C)[C@H](C(=O)C=C4[C@@]5(C)C=C(C#N)C(=O)C(C)(C)[C@@H]5CC[C@]43C)[C@@H]2C1 [TX63868]	0.7
CC1(C)CC[C@]2(COC(=O)N3CCOCC3)CC[C@]3(C)[C@H](C(=O)C=C4[C@@]5(C)C=C(C#N)C(=O)C(C)(C)[C@@H]5CC[C@]43C)[C@@H]2C1 [TX63926]	0.7
CC1(C)CC[C@]2(COC(=O)N3CCCC3)CC[C@]3(C)[C@H](C(=O)C=C4[C@@]5(C)C=C(C#N)C(=O)C(C)(C)[C@@H]5CC[C@]43C)[C@@H]2C1 [TX63927]	1.3
CCNC(=O)OC[C@]12CCC(C)(C)C[C@H]1[C@H]1C(=O)C=C3[C@@]4(C)C=C(C#N)C(=O)C(C)(C)[C@@H]4CC[C@@]3(C)[C@]1(C)CC2 [TX63930]	0.9
CC1(C)CC[C@]2(CCC(=O)N3CCCC3)CC[C@]3(C)[C@H](C(=O)C=C4[C@@]5(C)C=C(C#N)C(=O)C(C)(C)[C@@H]5CC[C@]43C)[C@@H]2C1 [TX63949]	0.6
CC1(C)CC[C@]2(CCC(=O)N3CCC3)CC[C@]3(C)[C@H](C(=O)C=C4[C@@]5(C)C=C(C#N)C(=O)C(C)(C)[C@@H]5CC[C@]43C)[C@@H]2C1 [TX63950]	0.4
CCNC(=O)OCC[C@]12CCC(C)(C)C[C@H]1[C@H]1C(=O)C=C3[C@@]4(C)C=C(C#N)C(=O)C(C)(C)[C@@H]4CC[C@@]3(C)[C@]1(C)CC2 [TX63981]	3
CCNC(=O)OCCC[C@]12CCC(C)(C)C[C@H]1[C@H]1C(=O)C=C3[C@@]4(C)C=C(C#N)C(=O)C(C)(C)[C@@H]4CC[C@@]3(C)[C@]1(C)CC2 [TX63983]	5.4
CCOC(=O)CC[C@]12CCC(C)(C)C[C@H]1[C@H]1C(=O)C=C3[C@@]4(C)C=C(C#N)C(=O)C(C)(C)[C@@H]4CC[C@@]3(C)[C@]1(C)CC2 [TX64042]	10
CC(C)OC(=O)CC[C@]12CCC(C)(C)C[C@H]1[C@H]1C(=O)C=C3[C@@]4(C)C=C(C#N)C(=O)C(C)(C)[C@@H]4CC[C@@]3(C)[C@]1(C)CC2 [TX64043]	21
CC1(C)CC[C@]2(CCC(=O)NC3COC3)CC[C@]3(C)[C@H](C(=O)C=C4[C@@]5(C)C=C(C#N)C(=O)C(C)(C)[C@@H]5CC[C@]43C)[C@@H]2C1 [TX64044]	1.3

SMILES	IC50 [nM]
CC(=O)NNC(=O)CC[C@]12CCC(C)(C)C[C@H]1[C@H]1C(=O)C=C3[C@@]4(C)C=C(C#N)C(=O)C(C)(C)[C@@H]4CC[C@@]3(C)[C@]1(C)CC2 [TX64045]	5.6
CC1(C)CC[C@]2(CCC(=O)Oc3ccccc3)CC[C@]3(C)[C@H](C(=O)C=C4[C@@]5(C)C=C(C#N)C(=O)C(C)(C)[C@@H]5CC[C@]43C)[C@@H]2C1 [TX64046]	8.5
CC1(C)CC[C@]2(CCC(=O)N3CC[C@H](O)C3)CC[C@]3(C)[C@H](C(=O)C=C4[C@@]5(C)C=C(C#N)C(=O)C(C)(C)[C@@H]5CC[C@]43C)[C@@H]2C1 [TX64047]	3.3
CC1(C)CC[C@]2(CCC(=O)N3CCC(O)CC3)CC[C@]3(C)[C@H](C(=O)C=C4[C@@]5(C)C=C(C#N)C(=O)C(C)(C)[C@@H]5CC[C@]43C)[C@@H]2C1 [TX64048]	1.2
CC1(C)CC[C@]2(CCC(=O)N3CCC(F)(F)C3)CC[C@]3(C)[C@H](C(=O)C=C4[C@@]5(C)C=C(C#N)C(=O)C(C)(C)[C@@H]5CC[C@]43C)[C@@H]2C1 [TX64049]	2
COC(=O)CNC(=O)CC[C@]12CCC(C)(C)C[C@H]1[C@H]1C(=O)C=C3[C@@]4(C)C=C(C#N)C(=O)C(C)(C)[C@@H]4CC[C@@]3(C)[C@]1(C)CC2 [TX64052]	2
CC1(C)CC[C@]2(CCC(=O)OC3CCN(C(=O)OC(C)(C)C)CC3)CC[C@]3(C)[C@H](C(=O)C=C4[C@@]5(C)C=C(C#N)C(=O)C(C)(C)[C@@H]5CC[C@]43C)[C@@H]2C1 [TX64053]	37
CC1(C)CC[C@]2(CCC(=O)NCC(=O)O)CC[C@]3(C)[C@H](C(=O)C=C4[C@@]5(C)C=C(C#N)C(=O)C(C)(C)[C@@H]5CC[C@]43C)[C@@H]2C1 [TX64054]	97
CC1(C)CC[C@]2(CCC(=O)OC3CCNCC3)CC[C@]3(C)[C@H](C(=O)C=C4[C@@]5(C)C=C(C#N)C(=O)C(C)(C)[C@@H]5CC[C@]43C)[C@@H]2C1 [TX64055]	1.7
CONC(=O)CC[C@]12CCC(C)(C)C[C@H]1[C@H]1C(=O)C=C3[C@@]4(C)C=C(C#N)C(=O)C(C)(C)[C@@H]4CC[C@@]3(C)[C@]1(C)CC2 [TX64056]	0.3
CC1(C)CC[C@]2(CCC(=O)NC3CCCCC3)CC[C@]3(C)[C@H](C(=O)C=C4[C@@]5(C)C=C(C#N)C(=O)C(C)(C)[C@@H]5CC[C@]43C)[C@@H]2C1 [TX64057]	0.8
CC1(C)CC[C@]2(CCC(=O)OC3CCCCC3)CC[C@]3(C)[C@H](C(=O)C=C4[C@@]5(C)C=C(C#N)C(=O)C(C)(C)[C@@H]5CC[C@]43C)[C@@H]2C1 [TX64058]	29
CC1(C)CC[C@]2(CCC(=O)Nc3ccccc3)CC[C@]3(C)[C@H](C(=O)C=C4[C@@]5(C)C=C(C#N)C(=O)C(C)(C)[C@@H]5CC[C@]43C)[C@@H]2C1 [TX64059]	1.4
CN(C)C(=O)CC[C@]12CCC(C)(C)C[C@H]1[C@H]1C(=O)C=C3[C@@]4(C)C=C(C#N)C(=O)C(C)(C)[C@@H]4CC[C@@]3(C)[C@]1(C)CC2 [TX64060]	0.4
CC(C)NC(=O)CC[C@]12CCC(C)(C)C[C@H]1[C@H]1C(=O)C=C3[C@@]4(C)C=C(C#N)C(=O)C(C)(C)[C@@H]4CC[C@@]3(C)[C@]1(C)CC2 [TX64064]	0.4
CC1(C)CC[C@]2(CCC(=O)NC(C)(C)C)CC[C@]3(C)[C@H](C(=O)C=C4[C@@]5(C)C=C(C#N)C(=O)C(C)(C)[C@@H]5CC[C@]43C)[C@@H]2C1 [TX64065]	0.6
CC1(C)CC[C@]2(CCC(=O)OCc3ccccc3)CC[C@]3(C)[C@H](C(=O)C=C4[C@@]5(C)C=C(C#N)C(=O)C(C)(C)[C@@H]5CC[C@]43C)[C@@H]2C1 [TX64066]	20
CC1(C)CC[C@]2(CCC(=O)OC(C)(C)C)CC[C@]3(C)[C@H](C(=O)C=C4[C@@]5(C)C=C(C#N)C(=O)C(C)(C)[C@@H]5CC[C@]43C)[C@@H]2C1 [TX64067]	14
CC1(C)CC[C@]2(CCC(=O)Nc3ccccn3)CC[C@]3(C)[C@H](C(=O)C=C4[C@@]5(C)C=C(C#N)C(=O)C(C)(C)[C@@H]5CC[C@]43C)[C@@H]2C1 [TX64068]	1.1
CC1(C)CC[C@]2(CCC(N)=O)CC[C@]3(C)[C@H](C(=O)C=C4[C@@]5(C)C=C(C#N)C(=O)C(C)(C)[C@@H]5CC[C@]43C)[C@@H]2C1 [TX64074]	0.3
CC1(C)CC[C@]2(CCC(=O)N3CCN(C(=O)OC(C)(C)C)CC3)CC[C@]3(C)[C@H](C(=O)C=C4[C@@]5(C)C=C(C#N)C(=O)C(C)(C)[C@@H]5CC[C@]43C)[C@@H]2C1 [TX64124]	3.4
CC1(C)CC[C@]2(CCC(=O)N3CCNCC3)CC[C@]3(C)[C@H](C(=O)C=C4[C@@]5(C)C=C(C#N)C(=O)C(C)(C)[C@@H]5CC[C@]43C)[C@@H]2C1 [TX64135]	1.5
